US12544372B2, “Methods of treating rheumatoid arthritis, chronic spontaneous urticaria, and systemic lupus erythematosis using an inhibitor of Bruton's tyrosine kinase” (Genentech, Inc., priority 2019, dated 2026)
Marks after values point to notes of the source that are not given here.

Experiments:
ESR = experiment: RA study: ESR versus baseline; assay type: in vivo, human
Source text: As used herein, “ESR” refers to “Erythrocyte Sedimentation Rate”, which is a test that indirectly measures the degree of inflammation in the body by measuring how quickly red blood cells settle at the bottom of a test tube containing a sample of a patient's blood. See www.healthline.com/health/esr (last visited Aug. 7, 2018). A positive ESR may be determined using the Westergren method according to specifications by the International Council for Standardization in Haematology, or by automated methods (e.g., TEST1 from Alifax). See https://icsh(dot)org/guidelines; Lou, J. M. et al., Int. Jnl. Lab. Hem. 2011, 33:125-132.
Disease Activity Score 28. The DAS 28-4 (CRP) and the DAS 28-4 (ESR) are calculated as follows. Assessments: (i) Tender joint count of 28 joints (TJC28), square-root transformed; (ii) Swollen joint count of 28 joints (SJC28), square-root transformed; (iii) Acute-phase reactant (erythrocyte sedimentation rate [ESR mm/hr] or high sensitivity C-reactive protein [hsCRP mg/L]), log transformed; (iv) Patient's global assessment of disease activity on visual analog scale (0-100 mm).

CCL4 = experiment: RA study biomarker: CCL4 (immunoassay); assay type: in vivo, human
Method: (§1) […] The biomarkers evaluated in this assessment were chemokine [C-C motif] ligand 4 (CCL4), IL-6, and TNF-like cytokine 1A (TL1A). Total IgM, IgG, rheumatoid factor IgM autoantibody (RF), CCL4, TL1A, IL-6, and anti-CCP autoantibody (ACPA IgG) levels were analyzed with immunoassays. CD19^+ B cells and CD3^+ T cells were measured by flow cytometry. The proportion of patients achieving an ACR50 response at week 12 and the change in DAS28 score by week 12 were assessed relative to seropositivity (RF and/or ACPA positive at baseline) or baseline levels of RF in both cohorts. To select which biomarkers to evaluate in this trial, BTK-dependent myeloid biomarkers were identified using peripheral blood CD14^+ monocytes stimulated with immune-complexes in the presence or absence of a BTK inhibitor. In brief, the expression levels of genes in human monocytes were assayed under conditions of no stimulation; with human serum albumin immune complex stimulation; with stimulation and a low concentration of a BTK inhibitor with similar characteristics to fenebrutinib; or with stimulation and a high concentration of the BTK inhibitor. […] Genes annotated with cytokine activity were selected. The color bar represents normalized gene expression.

Total IgG = experiment: RA study biomarker: total IgG; assay type: in vivo, human
Method: as §1

[1] = Phase II SLE study: safety
Source text: The safety objective for this study was to evaluate the safety of fenebrutinib given in combination with SOC in patients with moderate to severe active SLE.
An unblinded IMC and Scientific Oversight Committee is used to monitor multiple safety assessments.

With `C[C@H]1CN(C2COC2)CCN1c1ccc(Nc2cc(-c3ccnc(N4CCn5c(cc6c5CC(C)(C)C6)C4=O)c3CO)cn(C)c2=O)nc1` [fenebrutinib, (S)-2-(3′-(hydroxymethyl)-1-methyl-5-((5-(2-methyl-4-(oxetan-3-yl)piperazin-1-yl)pyridin-2-yl)amino)-6-oxo-1,6-dihydro-[3,4′-bipyridin]-2′-yl)-7,7-dimethyl-2,3,4,6,7,8-hexahydro-1H-cyclopenta[4,5]pyrrolo[1,2-a]pyrazin-1-one] the “ESR, % of BL ESR” value (ESR; Cohort 1, 200 mg BID, Week 12) was 63%, the ESR levels (ESR; Cohort 1, Weeks 2, 4 and 8) was “reduced ESR levels” and the ESR levels (ESR; Cohort 2, Week 8 and Week 12) was “reduced ESR levels”. The “CCL4 Reduction as % of Baseline” value (CCL4; Cohort 1, 50 mg QD, Week 2) was 78%*, the “CCL4 Reduction as % of Baseline” value (CCL4; Cohort 1, 50 mg QD, Week 4) was 84%* and the “CCL4 Reduction as % of Baseline” value (CCL4; Cohort 1, 50 mg QD, Week 12) was 78%*. The “CCL4 Reduction as % of Baseline” value (CCL4; Cohort 1, 150 mg QD, Week 2) was 73%*, the “CCL4 Reduction as % of Baseline” value (CCL4; Cohort 1, 150 mg QD, Week 4) was 79%* and the “CCL4 Reduction as % of Baseline” value (CCL4; Cohort 1, 150 mg QD, Week 12) was 86%*. For the same molecule, the “CCL4 Reduction as % of Baseline” value (CCL4; Cohort 1, 200 mg BID, Week 2) was 71%*, the “CCL4 Reduction as % of Baseline” value (CCL4; Cohort 1, 200 mg BID, Week 4) was 74%* and the “CCL4 Reduction as % of Baseline” value (CCL4; Cohort 1, 200 mg BID, Week 12) was 76%*. The “CCL4 reduction relative to placebo” value (CCL4; cohort 1, 200 mg twice daily, largest reduction) was −28%, the “CCL4 levels compared to placebo” value (CCL4; cohorts 1 and 2, all doses, by week 1) was “reduced CCL4 levels” and the “Total IgG Reduction as % of Baseline” value (Total IgG; Cohort 1, 150 mg QD, Week 4) was 97%*. The “Total IgG Reduction as % of Baseline” value (Total IgG; Cohort 1, 150 mg QD, Week 8) was 94%*, the “Total IgG Reduction as % of Baseline” value (Total IgG; Cohort 1, 150 mg QD, Week 12) was 95%* and the “Total IgG Reduction as % of Baseline” value (Total IgG; Cohort 1, 200 mg BID, Week 4) was 95%*. For the same molecule, the “Total IgG Reduction as % of Baseline” value (Total IgG; Cohort 1, 200 mg BID, Week 8) was 92%*, the “Total IgG Reduction as % of Baseline” value (Total IgG; Cohort 1, 200 mg BID, Week 12) was 93%* and the “IgG absolute reduction relative to placebo” value (Total IgG; cohort 1, 200 mg twice daily, by week 12) was -115 mg/dL. For the same molecule, the “IgG reduction relative to placebo” value (Total IgG; cohort 2, 200 mg twice daily, by week 12) was -101 mg/dL, the “Total number of patients with at least one AE” value ([1]; 150 mg QD) was 77 (89) n (%) and the “Total number of patients with at least one AE leading to death” value ([1]; 150 mg QD) was 1 (1) n (%). For the same molecule, the “Total number of patients with at least one Serious AE” value ([1]; 150 mg QD) was 4 (5) n (%), the “Total number of patients with at least one AE” value ([1]; 200 mg BID) was 68 (77) n (%) and the “Total number of patients with at least one AE leading to death” value ([1]; 200 mg BID) was 0 n (%). The “Total number of patients with at least one Serious AE” value ([1]; 200 mg BID) was 12 (14) n (%), the “ALT and AST elevations” value ([1]; interim analysis, 200 mg BID arm, some patients) was “signs of ALT and AST elevations” and the safety and tolerability ([1]; interim analysis, each dose) was “safe and well tolerated”.
